# According to article PMC2063203, “The renal effects of the water-soluble, non-folylpolyglutamate synthetase-dependent thymidylate synthase inhibitor ZD9331 in mice” (British Journal of Cancer, 1998):
# Values joined by “and” are separate entries in the source; they are usually repeats but may differ in a detail not shown here. Equal values may be shown once. Read-outs that look alike come from different tables or passages of the source.
# How the values were obtained:
# [1] = Peak plasma concentration in phase I, 30 min infusion; format: in vivo; details: after 30 min infusion
# Aqueous solubility = format: physicochemical
# [2] = Kidney drug distribution and kidney-plasma ratios (HPLC); format: in vivo, mice; details: for Cmax / Tmax / AUC(0-t): mouse, DBA-2 mice; for AUC(0-t): read-out: AUC0-8h
# Procedure: British Journal of Cancer (1998) 78(11), 1457-1463 ? […] In contrast to Tomudex (ZD1694), ZD9331 may therefore be active against tumours with low FPGS activity. […] In view of the history of renal toxicity with some earlier TS inhibitors and the possible therapeutic use of bolus ZD9331, we have examined the effects of bolus ZD9331 dose and route of administration on plasma and kidney pharmacokinetics and renal function in mice. Renal function was assessed by measuring [14C]inulin clearance, and drug concentrations were assayed by reverse-phase high-performance liquid chromatography (HPLC). […] Kidney drug concentrations were slightly elevated in iv.- versus i.p.-treated animals at the low dose (50 mg kg-'), with a correspondingly larger area under the curve. However, at the highest dose (200 mg kg-'), peak kidney drug concentrations were 20-fold higher following i.v. administration than after i.p., with marked kidney retention, resulting in a 50-fold greater kidney drug exposure for the i.v. versus the i.p. route. […] These adverse effects can be readily overcome by i.p. administration, indicating the likely need for short infusions in clinical settings. […] Early studies established that nephrotoxicity may be a result of poor aqueous solubility of 2-amino compounds such as CB3717, and it was shown that 2-desamino CB3717 was more water soluble and less nephrotoxic (Jones et al, 1989; 1996). […] These polyglutamate forms also exibit intra- cellular retention, which may contribute to toxicity as well as anti- tumour activity. […] Such compounds might be expected to show activity in a different spectrum of tumours from ZD1694 and to have a more manageable toxicity profile because of the lack of retained cyto- toxic metabolites. […] MATERIALS AND METHODS Drug administration and animals The compound ZD933 1 (Figure 1) was provided as a white crystalline salt. ['4C]inulin was provided as a carboxylic acid (Amersham, UK, 250 µCi in 5 ml, specific activity 6.6 mCi mmol-') and diluted to an activity of 5 µCi ml-' in phosphate-buffered saline (PBS). ZD9331 was dissolved in 0.05 M sodium bicarbonate, 1457 1458 Ml Walton et al ~~ N Ny~~~14COOHH 0 H IN H N CH ~~~~H , 4 H3C N3 H Figure 1 The chemical structure of ZD9331 adjusted to pH 9.0 and administered either i.v. via the tail vein or i.p. at 0.01 ml g-' mouse body weight. [14C]inulin was administered at 0.05 gCi g-' (i.e. 0.01 ml g-') i.v. via the tail vein. Adult female DBA-2 mice were obtained from OLAC (Bicester, UK) and used at 8-12 weeks of age at a body weight of 15-25 g. Mice were housed in cages containing untreated sawdust and allowed access to food and water ad libitum. Sample preparation Plasma and tissue samples were prepared using standard tech- niques (Walton et al, 1996). Briefly, whole blood was obtained by cardiac puncture into heparinized syringes from halothane- anaesthetized mice. Plasma was prepared by centrifugation at 12 000 r.p.m. x 2 min in a bench-top microcentrifuge. Kidney and liver tissues were rapidly removed, washed and snap frozen on dry ice. Frozen plasma and tissues were stored at -20?C for up to 4 weeks prior to analysis. Individual samples were thawed on ice and handled rapidly. ZD9331 was extracted from whole plasma or tissue homogenates (33% w/v in 0.1 M Tris, pH 10.0) by the addition of an equal volume of acetonitrile, mixing and centrifugation and the super- natant removed for injection into the HPLC system. Samples were diluted with Tris buffer (0.1 M, pH 10.0) on to the linear part of the calibration curve prior to HPLC analysis. Extraction efficiencies were >95%. HPLC analysis Concentrations of ZD9331 were measured in biological samples using reversed phase HPLC on equipment supplied by Kontron (Watford, UK). Separations were carried out using stainless-steel columns heated at 45?C and packed with C18 Supelcosil ODS (10 cm x 4.6 mm, 5 µm bead size, Sigma, Dorset) and protected with NewGuard C18 columns (Anachem, Luton, UK). […]
# [3] = female, ip, kidney, 50 mg kg-1 i.p.
# [4] = female, ip, kidney, 200 mg kg-1 i.p.
# [5] = female, iv, kidney, 50 mg kg-1 i.v.
# [6] = female, iv, kidney, 200 mg kg-1 i.v.
structure (smiles),measurement,setting,value
"C#CCN(Cc1cc2c(=O)[nH]c(C)nc2cc1C)c1ccc(C(=O)N[C@@H](CCc2nnn[nH]2)C(=O)O)c(F)c1 [ZD9331, (2S)-2-{O-fluoro-p-(N-(2,7-dimethyl-4-oxo-3,4-dihydroquinazolin-6-ylmethyl)-N-(prop-2-ynyl)amino}benzamido}-4-(tetrazol-5-yl)butyric acid]",peak plasma drug concentration in man as % of that after 200 mg kg-1 i.v. in mouse,[1],< 1%
same,solubility,"Aqueous solubility; pH 5.3, aqueous buffer",0.1 mM
same,solubility,"Aqueous solubility; pH 7.4, aqueous buffer",8 mM
same,"peak kidney drug level i.p., % lower than i.v.",[2]; 50 mg kg-1,80%
same,kidney AUC0-8h i.p. as % of i.v. route,[2]; 200 mg kg-1,1.8%
same,kidney drug exposure i.v. versus i.p.,[2]; 200 mg kg-1,50 fold
same,peak kidney drug concentration i.v. versus i.p.,[2]; 200 mg kg-1,20 fold
same,peak kidney drug level i.p. as % of i.v. value,[2]; 200 mg kg-1,5%
same,kidney-plasma ratio at 8 h,[2]; 200 mg kg-1 i.p.,2 000%
same,kidney-plasma ratio relative to the lower dose of 50 mg kg-1,[2]; 200 mg kg-1 i.p.,2-3 times
same,"kidney-plasma ratio, initial",[2]; 200 mg kg-1 i.p.,20%
same,kidney AUC0-8h,[2]; 200 mg kg-1 i.v.,9660 µM·h
same,kidney-plasma ratio after 8 h,[2]; 200 mg kg-1 i.v.,100 000%
same,"kidney-plasma ratio, initial (measured at 5 min)",[2]; 200 mg kg-1 i.v.,> 100%
same,peak kidney drug level,[2]; 200 mg kg-1 i.v.,3.62 mM
same,peak kidney drug level versus lower dose,[2]; 200 mg kg-1 i.v. compared with 50 mg kg-1 i.v.,~12 fold
same,Kp at 4 h,"[2]; female, DBA-2, mouse, kidney, ip, 50 mg kg-1, 50 mg kg-1 i.p., Discussion, read-out: kidney-plasma ratio, steady-state equilibrium at 4 h",2 to 4
same,Kp at 1 h,"[2]; female, DBA-2, mouse, kidney, ip, 50 mg kg-1, 50 mg kg-1 i.p., read-out: kidney-plasma ratio after 1 h",1
same,Kp,"[2]; female, DBA-2, mouse, kidney, ip, 50 mg kg-1, 50 mg kg-1 i.p., read-out: kidney-plasma ratio, steady-state",1 to 3
same,Kp at 30 min,"[2]; female, DBA-2, mouse, kidney, iv, 50 mg kg-1, 50 mg kg-1 i.v., read-out: kidney-plasma ratio at 30 min",10
same,Kp at 2 h,"[2]; female, DBA-2, mouse, kidney, iv, 50 mg kg-1, 50 mg kg-1 i.v., read-out: kidney-plasma ratio, equilibrium at 2 h",2 to 3
same,Kp,"[2]; female, DBA-2, mouse, kidney, iv, 50 mg kg-1, 50 mg kg-1 i.v., read-out: kidney-plasma ratio, initial",0.35
same,Kp,"[2]; female, DBA-2, mouse, kidney, iv, 200 mg kg-1, 200 mg kg-1 i.v., read-out: kidney concentration relative to plasma, plateau",400 to 600
same,Kp at 5 min,"[2]; female, DBA-2, mouse, kidney, iv, 200 mg kg-1, 200 mg kg-1 i.v., read-out: kidney-plasma ratio, initial (measured at 5 min)",1
same,Kp,"[2]; female, DBA-2, mouse, kidney/plasma, ip, 200 mg kg-1, 200 mg kg-1 i.p., read-out: kidney-plasma ratio, increased steadily to",10 to 20
same,Kp,"[2]; female, DBA-2, mouse, kidney/plasma, ip, 200 mg kg-1, 200 mg kg-1 i.p., read-out: kidney-plasma ratio, initial",0.23
same,Cmax,[2]; [3],31500 ng/g and 59.1 µM
same,Tmax,[2]; [3],10 min
same,AUC(0-t),[2]; [3],47.5 µM·h
same,Cmax,[2]; [4],96400 ng/g and 181 µM
same,Tmax,[2]; [4],30 min
same,AUC(0-t),[2]; [4],179 µM·h
same,Cmax,[2]; [5],163000 ng/g and 305 µM
same,Tmax,[2]; [5],10 min
same,AUC(0-t),[2]; [5],240 µM·h
same,Cmax,[2]; [6],1.9e+06 ng/g and 3.62 mM
same,Tmax,[2]; [6],30 min
same,AUC(0-t),[2]; [6],9660 µM·h
